Test results reported in US8748497B2, “Optimized fluorocarbon emulsions for blood substitutes and other therapeutic uses” (Alliance Pharmaceutical Corp., priority 2006, dated 2014).
Read-outs that look alike come from different tables or passages of the source.

Assays:
[1] = pharmacokinetics in blood after single intravenous administration of the emulsion of Ex. VI; assay type: in vivo, Sprague Dawley rats; settings: for half-life: Sprague-Dawley, rat, iv; for half-life / AUC(o-last) / AUC(o-∞) / Cl: blood; for Vd: terminal phase
From the text: (§1) This study was designed to assess the pharmokinetics and tissue distribution of PFOB and PFDB following a single intravenous administration of the emulsion of Ex. VI at various time intervals at dose levels of 1.8 and 3.6 g PFC/k in male and female Sprague Daley rats, aged 7-9 weeks, weight between 190-267 grams. For pharmacokinetics, 160 rats were divided into 20 groups (N=4 rats/sex/dose/time interval) and for tissue distribution, 156 rats were divided into 26 groups (n=3 rats/sex/dose/time interval). The time intervals for pharmacokinetics blood sampling were 0.083, 0.5, 1, 3, 6, 12, 36, 48, 72 and 96 hours. The time intervals for tissue sampling was predose, 24 hours, 1, 2, 4, 8, 13, 17, 21, 26, 39, 52 and 72 weeks.
Six pharmacokinetic parameters were determined following a single intravenous dose of 1.8 gPFC/kg or 3.6 g PFC/kg in both the male and female rats as shown in the tables below.

[2] = tissue distribution after single intravenous administration of the emulsion of Ex. VI, GC headspace; assay type: in vivo, Sprague Dawley rats; settings: 24 hours; for concentration at 24 h: Sprague-Dawley, rat, intravenous
From the text: as §1
26 groups (N=3 rats/sex/group). Prior to euthanasia, body weights were recorded. At designated times (see below), rats were anesthetized with METOFANE® and esanguinated via the abdominal artery. Blood was collected into syringes containing EDTA and transferred into sealed plastic containers for storage at approximately −20° C. until analyzed. Resultant data were included in the determination of pharmacokinetic parameters. The following tissues were collected from each rat and placed in sealed containers and stored frozen at −20° C. Prior to freezing, blood and tissue samples were processed for analysis. PFOB and PFDB were quantified in blood and tissues using a GC headspace method validated by Oread. The method was validated in the liver and then cross validated to all other tissues, blood, and serum. The tissues collected and analyzed include heart, lungs, abdominal fat, spleen, liver, mesenteric lymph nodes, kidneys, adrenals, testes, ovaries, uterus, whole brain, eyes, skeletal muscle, femoral bone marrow, and gastrointestinal tract.
The concentration of PFOB and PFDB was determined in the tissues in both sexes at 12 time points. For the males, this was a total of 360 individual results including blood. There were 24 additional results for the female.

[3] = Phase 1 pharmacokinetics in healthy human volunteers; assay type: in vivo; settings: human, blood; for AUC(0-t) / half-life: intravenous; for AUC(0-t): read-out: AUC (0-336); for half-life: read-out: t1/2. 12 h (initial elimination half-life within the first 12 h post dose) (converted); for Cmax: iv, healthy volunteers
Description: Two randomised, controlled, double-blind, parallel group, Phase 1 studies were conducted in healthy human patients with the fluorocarbon emulsion made according to Example VI. Blood and expired air samples were analysed for PFOB and PFDB after a single intravenous dose of 1.2 or 1.8 g PFC/kg of the fluorocarbon emulsion of Example VI in healthy human volunteers to determine pharmacokinetics. Blood samples were collected up to 336 hours post-dosing.

[4] = pharmacokinetics in subjects undergoing noncardiac surgical procedures; assay type: in vivo, human; settings: noncardiac surgery; for AUC(0-inf) / clearance / Cmax / half-life: human, whole blood; for clearance: read-out: CL (whole blood clearance) (converted); for Cmax: read-out: Cmax (maximum whole blood concentration); for half-life: read-out: T1/2 (elimination half-life) (converted)
Description: The pharmacokinetics of PFOB and PFDB were determined after the administration of the fluorocarbon emulsion of Example VI to subjects undergoing total hip replacement or spinal surgery or a variety of urologic and gynaecologic procedures including radical retropubic prostatectomy, radical hysterectomy, cystectomy and combined procedures. Human subjects in one study received either 0.9 g PFC/kg or 1.8 g PFC/kg of the fluorocarbon formulation of Example VI and those in a second study received 1.8 g PFC/kg of the fluorocarbon formulation of Example VI.

[5] = pharmacokinetics in subjects undergoing CABG surgery with hypothermic CPB; assay type: in vivo, human
Description: The pharmacokinetics of PFOB and PFDB were determined after the administration of the fluorocarbon formulation taught in Example VI to human subjects undergoing coronary artery bypass grafting or CABG surgery with hypothermic cardiopulmonary bypass. In group 1 and in group 2, human subjects received the fluorocarbon emulsion (2.7 g PFC/kg) as taught in Example VI directly into the bypass oxygenator after being put on bypass but before cooling was begun. In group 4, subjects received 2.7 g PFC/kg of the fluorocarbon emulsion of Example VI directly into the bypass oxygenator either prior to aortic cannulation or after being put on bypass, but before cooling was begun.

[6] = four compartment model; cited from earlier work
[7] = female rats, 1.8 g PFC/kg single iv
[8] = female rats, 3.6 g PFC/kg single iv
[9] = male rats, 1.8 g PFC/kg single iv
[10] = male rats, 3.6 g PFC/kg single iv
[11] = 1.2 g PFC/kg, Table VII, 1.2 g PFC/kg
[12] = 1.2 g PFC/kg, Table VIII, 1.2 g PFC/kg
[13] = 1.8 g PFC/kg, Table VII, 1.8 g PFC/kg
[14] = 1.8 g PFC/kg, Table VIII, 1.8 g PFC/kg

For FC(F)(F)C(F)(F)C(F)(F)C(F)(F)C(F)(F)C(F)(F)C(F)(F)C(F)(F)Br [PFOB, perfluorooctyl bromide], the half-life ([1]; both sexes, 1.8 g/kg, male and female rats, 1.8 g PFC/kg, read-out: average terminal t1/2 (converted)) was roughly 73 h, the half-life ([1]; both sexes, 3.6 g/kg, male and female rats, 3.6 g PFC/kg, read-out: average terminal t1/2 (converted)) was 181 h and the “AUC(o-last)” value [1, 7] was 126.86 mg·h/g. The “AUC(o-∞)” value [1, 7] was 126.89 mg·h/g, the Cl [1, 7] was 5.41 g/h/kg and the Vd [1, 7] was 1605.67 g/kg. For the same molecule, the “AUC(o-last)” value [1, 8] was 541.55 mg·h/g, the “AUC(o-∞)” value [1, 8] was 541.58 mg·h/g and the Cl [1, 8] was 6.70 g/h/kg. For the same molecule, the Vd [1, 8] was 1182.97 g/kg, the half-life ([1]; female, 1.8 g/kg, female rats, 1.8 g PFC/kg single iv, last 3 or 4 data points, read-out: T1/2 (converted)) was 78.5 h and the half-life ([1]; female, 3.6 g/kg, female rats, 3.6 g PFC/kg single iv, last 3 or 4 data points, read-out: T1/2 (converted)) was 123 h. For the same molecule, the “AUC(o-last)” value [1, 9] was 122.65 mg·h/g, the “AUC(o-∞)” value [1, 9] was 122.69 mg·h/g and the Cl [1, 9] was 6.01 g/h/kg. For the same molecule, the Vd [1, 9] was 1443.18 g/kg, the “AUC(o-last)” value [1, 10] was 566.13 mg·h/g and the “AUC(o-∞)” value [1, 10] was 566.15 mg·h/g. For the same molecule, the Cl [1, 10] was 8.93 g/h/kg, the Vd [1, 10] was 2191.83 g/kg and the half-life ([1]; male, 1.8 g/kg, male rats, 1.8 g PFC/kg single iv, last 3 or 4 data points, read-out: T1/2 (converted)) was 68.2 h. The half-life ([1]; male, 3.6 g/kg, male rats, 3.6 g PFC/kg single iv, last 3 or 4 data points, read-out: T1/2 (converted)) was 238 h, the “concentration in the liver and bone marrow” value ([2]; all four groups) was “greater than 10 mg/g” and the “percent of dose in liver” value ([2]; female rats, 1.8 g PFC/kg) was “approximately 63%”. The “percent of dose in spleen” value ([2]; female rats, 1.8 g PFC/kg) was “approximately 4%”, the “percent of dose in liver” value ([2]; female rats, 3.6 g PFC/kg) was “approximately 53%” and the “percent of dose in spleen” value ([2]; female rats, 3.6 g PFC/kg) was less than 1%. For the same molecule, the concentration at 24 h ([2]; female, females 1.8 g PFC/kg, all tissues except the blood, eyes, and skeletal muscle, read-out: concentration in tissues) was greater than 100000 ng/g, the concentration at 24 h ([2]; female, females 3.6 g/kg of PFC, all tissues, read-out: concentration in tissues) was greater than 100000 ng/g and the “percent of dose in liver” value ([2]; male rats, 1.8 g PFC/kg) was “approximately 59%”. For the same molecule, the “percent of dose in spleen” value ([2]; male rats, 1.8 g PFC/kg) was less than 1%, the “percent of dose in liver” value ([2]; male rats, 3.6 g PFC/kg) was “approximately 69%” and the concentration at 24 h ([2]; male, 3.6 g PFC/kg, males 3.6 PFC/kg, all tissues, read-out: concentration in tissues) was greater than 100000 ng/g. For the same molecule, the concentration at 24 h ([2]; male, males 1.8 g/kg of PFC, all tissues except the eyes and skeletal muscles, read-out: absolute concentration in tissues) was greater than 100000 ng/g, the AUC(0-t) [3, 11] was 10.2 µg·h/mL and the half-life [3, 11] was 6.55 ± 2.06 h. The AUC(0-t) [3, 12] was 79200 µg·h/mL, the half-life [3, 12] was 5.41 h and the AUC(0-t) [3, 13] was 285000 µg·h/mL. For the same molecule, the half-life [3, 13] was 10.5 ± 2.1 h, the AUC(0-t) [3, 14] was 239000 µg·h/mL and the half-life [3, 14] was 7.66 h. It also gave a Cmax ([3]; 1.2 g PFC/kg, Table VII, 1.2 g PFC/kg single iv) of 13600 µg/mL, a Cmax ([3]; 1.2 g PFC/kg, Table VIII, 1.2 g PFC/kg single iv) of 12600 µg/mL and a Cmax ([3]; 1.8 g PFC/kg, Table VII, 1.8 g PFC/kg single iv) of 22700 µg/mL. For the same molecule, the Cmax ([3]; 1.8 g PFC/kg, Table VIII, 1.8 g PFC/kg single iv) was 21800 µg/mL, the AUC(0-inf) ([4]; 0.9 g PFC/kg) was 13300 µg·h/mL and the clearance ([4]; 0.9 g PFC/kg) was 1.61 mL/min/kg. The Cmax ([4]; 0.9 g PFC/kg) was 7680 µg/mL, the half-life ([4]; 0.9 g PFC/kg) was 2.36 ± 3.06 h and the AUC(0-inf) ([4]; 1.8 g PFC/kg) was 57400 µg·h/mL. It also gave a clearance ([4]; 1.8 g PFC/kg) of 0.703 mL/min/kg, a Cmax ([4]; 1.8 g PFC/kg) of 17500 µg/mL and a half-life ([4]; 1.8 g PFC/kg) of 3.77 ± 2.69 h. For the same molecule, the “whole blood concentration relative to PFDB” value [4] was “approximately 30 fold”, the “whole blood concentration relative to PFDB” value [5] was roughly 30 fold and the AUC(0-inf) ([5]; human, whole blood, other: directly into the bypass oxygenator, 2.7 g PFC/kg) was 300000 µg·h/mL. It also gave a clearance ([5]; human, whole blood, other: directly into the bypass oxygenator, 2.7 g PFC/kg, read-out: CL (whole blood clearance) (converted)) of 0.165 mL/min/kg, a Cmax ([5]; human, whole blood, other: directly into the bypass oxygenator, 2.7 g PFC/kg, read-out: Cmax (maximum whole blood concentration)) of 30300 µg/mL and a half-life ([5]; human, whole blood, other: directly into the bypass oxygenator, 2.7 g PFC/kg, read-out: T1/2 (elimination half-life) (converted)) of 7.65 ± 2.71 h. For the same molecule, the “rate constant k10” value [6] was “≈ 0.000 hr^−1”, the “rate constant k12” value [6] was “≈ 0.04 hr^−1” and the “rate constant k24” value [6] was “≈ 0.006 hr^−1”. The “rate constant k34” value [6] was “≈ 0.002 hr^−1”, the “rate constant k40” value [6] was “≈ 0.07 hr^−1” and the “rate constant k42” value [6] was “≈ 0.002 hr^−1”.
